Results as given in patent US8099262B2, “Estimation of clinical cut-offs” (priority 2004, dated 2012).

Key:
Format in all cases: in vivo
HIV [1] = tested on: HIV; design: key to Modelled Lower Cutoff & Confidence Interval / Modelled Upper Cutoff & Confidence Interval: fold change (FC) matching VL drop at 20% and 80% loss of activity; conditions: for Modelled Lower Cutoff & Confidence Interval / Modelled Upper Cutoff & Confidence Interval: preferred embodiment of linear regression
Description: In a preferred embodiment of the linear regression model, more factors are included in order to obtain a more refined prediction of viral load response. These factors include for example a sensitivity score per drug class in addition to the overall sensitivity score of the background treatment (cPSS), previous exposure to the drug (naïve (Yes/No), naïve to PIs, naïve to NRTI's, etc. . . . ). Furthermore, in the preferred embodiment, the fold change is transformed before inserting the figures into the model. The transformation to the fold change comprises a power-transformation ranging from FC^−3 to FC^1. In addition, a quadratic term in cPSS is preferably added.
The NRTI[naïve] value represents whether the patient is naïve to nucleoside RT inhibitors. If yes, value=1, if no, value=0. The PSS[NRTI} represents the phenotypic sensitivity score for NRTIs, i.e the number of active NRTIs in the background regimen for the patient.
Stage 3: Determine Fold change equivalent to VL drop at 20% and 80% loss of activity by inserting values for VL drop into the above equation and calculating FC. […]

HIV [2] = conditions: for Test Data BCO Odds Ratio / Validation Data BCO Odds Ratio: biological cutoffs; for Test Data CCO Odds Ratio / Validation Data CCO Odds Ratio: clinical cutoffs
Description: Further factors which may be taken into account when validating the model are the odds ratios determined using clinical cutoffs compared to those determined using biological cutoffs. These ratios represent the odds of being a responder in the group that is labeled resistant by the cutoffs divided by the odds of being a responder in the group that is labeled sensitive by the cutoffs. In this way it is possible to evaluate how well the cutoffs perform on a drug by drug basis. The further away that the odds ratio is from 1, the stronger the correlation between the resistance class and clinical outcome. The odds ratio as specified above yield numbers smaller than 1 as the odds of being a responder should be smaller in the higher resistance class. Put another way, the probability of response will decrease as the resistance increases. Additionally, if the odds ratio for the CCO is smaller than the odds ratio for the BCO, it can be concluded that the CCO is stronger correlated with clinical outcome and therefore gives a better prediction than the BCO.
(§1) A logistic regression model may be used to determine the odds ratio. The model used is the same as the logistic regression model described above except that the fold change in the model is replaced by the resistance class. The coefficient for the resistance class that is obtained from the model is the log (odds ratio). The advantage of using this model is that the odds ratio estimates can be adjusted for the baseline viral load and the cPSS score of the background regimen.
The columns headed CCO Odds Ratio and BCO Odds Ratio represent the odds of being a responder in the group that is labeled resistance by the cutoffs divided by the odds of being a responder in the group that is labeled sensitive by the cutoffs. For example, if there are four non-responders and one responder in the resistant group, and four responders and two non-responders in the sensitive group, the odds of being a responder in the resistant group is 1:4=0.25 and the odds of being a responder in the sensitive group is 4:2=2. […] The further away that the odds ratio is from 1, the stronger the correlation between the resistance class and clinical outcome.
The separation in groups (resistance/sensitive) can be done based on clinical cutoffs or biological cutoffs. This means that odds ratios based on clinical cutoffs (CCO) and odds ratios based on biological cutoffs (BCO) can be compared. If the odds ratio for the CCO is smaller than the odds ratio for the BCO, it can be concluded that the CCO gives a better prediction than the BCO.
as §1, with “In practice, a” for “A”, “is” for “may be”, “similar to” for “the same as the”, “earlier” for “above”, “regimen. […] In this case, a larger odds ratio indicates a stronger correlation with clinical outcome.” for “regimen.”

HIV [3] = tested on: HIV; design: Linear Regression Higher CO / Linear Regression Lower CO: unit not given here; conditions: for VIROLOGIC RESPONSE Baseline FC for 80% REDUCTION of response (upper cutoff) / VIROLOGIC RESPONSE 20% REDUCTION (fold change, preliminary VirtualPhenotype Clinical Cutoff) / VIROLOGIC RESPONSE 80% REDUCTION (fold change, preliminary VirtualPhenotype Clinical Cutoff): preliminary linear regression analysis; for VIROLOGIC RESPONSE 20% REDUCTION (fold change, preliminary VirtualPhenotype Clinical Cutoff) / VIROLOGIC RESPONSE 80% REDUCTION (fold change, preliminary VirtualPhenotype Clinical Cutoff): virologic response at 8 weeks; for Linear Regression Higher CO / Linear Regression Lower CO: Definition 2, Overall (whole population)
Description: Databases of studies for patients with tenofovir containing regimens and consisting of patient baseline demographic characteristics, clinical outcome results with viral load and resistance data (Fold change), were retrieved and remapped according to a common structure allowing a meta-analysis. The structure consisted of baseline sequence, viral load data set, viral load measurements and sampling dates (for example viral load within 3 months of starting new regimen and viral load assessment 8 and/or 24 weeks after beginning new regimen), CD4+ data set which contains CD4+ counts and sampling dates, resistance data set containing the fold changes to different antivirals and sampling dates; patient data set with patient information such as age, gender, race, treatment history; treatment data set with drug regimens, start and stop dates, doses, formulations, frequency of intake, regimen changes after resistance tests. The structure of such a clinical data base can be seen in FIG. 1a.
The viral load response data includes censored (<400 copies/ml) values. Parameters of the underlying uncensored distribution were estimated by maximum likelihood estimation in SAS (proc lifereg). The viral load response data are corrected for baseline viral load and cPSS.
(§2) The models applied were linear regression, logistic regression, and a classification tree. These models also took into account effects of the concomitant HIV drugs (PSS), baseline viral load (Baseline Log(V1)i) and, optionally, treatment history in order to avoid bias introduced by imbalances of important characteristics. From the models, a prediction of clinical outcome could be made at different levels of the baseline fold change resistance.
In the linear regression model, the proposed equation was the following: LogVL dropi=β0+β1*Baseline Log(V1)i+β2*PSSi+β3*(1/FC)i+ξi where i represented the patient, β0 the intercept, β1, β2 and β3 coefficients indicated the increase in log viral load drop per unit increase of respectively the baseline log VL, the number of sensitive drugs in the background regimen and the inverse of the baseline fold change. ξi was a random error term indicating the deviation of the patient from the value predicted by the model. Interactions between all the factors were evaluated and other baseline characteristics, i.e treatment history, were added if relevant.
When viral load results under the detection limits are obtained, biases could be introduced if the detection limit values are considered when calculating viral load drops and using those in the linear regression model. To avoid this, censoring needed to be taken into account and therefore the PROC LIFEREG facility in the SAS package was employed.
Clinical responses were predicted in the models developed in previous step 2. […] In order to determine the fold changes at which clinically relevant diminished clinical responses can be observed, three definitions of clinical cut-offs were considered:
(§3) The maximum effect was defined as the treatment effect at fold change 1, and the minimum effect was defined as the treatment effect at a very high fold change (i.e. when the curve reached a plateau). The effect range was then the difference between the maximum effect and the minimum effect.

HIV [4] = assay: Logistic regression model of probability of success/failure as a function of baseline fold change resistance (clinical cut-offs); conditions: Definition 2; for lower cutoff, logistic regression / upper cutoff, logistic regression: log baseline VL/background PSS of 5/0
Description: In such a method, Prob of success is preferably calculated by performing a logistic regression analysis using data from a clinical response dataset, wherein Prob of success is modelled according to the following equation: […]
as §2, with “The clinical outcome results (drop in viral load and response rate) were modelled as a function of baseline fold change (FC) as determined by virtual phenotype (see WO01/79540 and WO02/33402; also http://www.vircolab.com). The models” for “The models”
In the logistic regression, the proposed equation was the following: […]
However, by binning the viral load into successes and failures, part of the information of the continuous variable viral load is lost. Estimates are also corrected for covariates as for linear regression.
as §3
The lower and higher cutoffs are defined as the fold change associated with an expected 20% and 80% decrease respectively of the reference activity of the drug within the regimen.

[5] = Subgroup 1: PSS = 2, baseline Log (VL) = 4
[6] = Log(BaselineVL)=4, cPSS=2, PSS[NRTI]=1, NRTI[naïve]=0
[7] = definition 2, Log(BaselineVL)=4, reference fold changes 0.9 and 3, cPSS=2, PSS[NRTI]=1, NRTI[naïve]=0
[8] = Definition 1, log baseline viral load of 5, no active drugs in addition
[9] = Subgroup 3: PSS = 2, baseline Log (VL) = 5

Molecule	Modelled Lower Cutoff & Confidence Interval (HIV [1])	Modelled Upper Cutoff & Confidence Interval (HIV [1])	Test Data BCO Odds Ratio (HIV [2])	Test Data CCO Odds Ratio (HIV [2])	Validation Data BCO Odds Ratio (HIV [2])	Validation Data CCO Odds Ratio (HIV [2])	VIROLOGIC RESPONSE Baseline FC for 80% REDUCTION of response (upper cutoff) (HIV [3]; definition 2)	VIROLOGIC RESPONSE 20% REDUCTION (fold change, preliminary VirtualPhenotype Clinical Cutoff) (HIV [3])	VIROLOGIC RESPONSE 80% REDUCTION (fold change, preliminary VirtualPhenotype Clinical Cutoff) (HIV [3])	clinical cutoff for 80% reduced response (upper clinical cutoff) (HIV [3]; definition 2, after 8 weeks)	also measured
Indinavir/r [IDV/r]	4.1	21.2	0.122	0.027	0.038	0.012	25	3.5	25	–	–
Saquinavir/r [SQV/r]	1.1	12.0	0.249	0.165	0.080	0.054	12	1.6	12	–	Linear Regression Higher CO (HIV [3]): 12.3; Linear Regression Lower CO (HIV [3]): 1.6; Logistic Regression Higher CO (HIV [4]; [5]): 13.2; Logistic Regression Lower CO (HIV [4]; [5]): 1.7; lower cutoff, logistic regression (HIV [4]): 1.7; upper cutoff, logistic regression (HIV [4]): 12.9
Cc1cn([C@H]2C=C[C@@H](CO)O2)c(=O)[nH]c1=O [D4T, stavudine]	–	–	–	–	–	–	–	–	–	–	Fold change equivalent to VL drop at 20% loss of activity (HIV [1]; [6]): 1.08; Fold change equivalent to VL drop at 80% loss of activity (HIV [1]; [6]): 2.18; VL drop when drug has lost 20% of its activity (HIV [1]; [6]): −2.76; VL drop when drug has lost 80% of its activity (HIV [1]; [6]): −2.21; modelled lower clinical cutoff (CCO) (HIV [1]; [7]): 1.1; modelled upper clinical cutoff (CCO) (HIV [1]; [7]): 2.2; VL drop at the lower reference FC (drug is fully active) (HIV [1]; lower reference fold change=0.9, Log(BaselineVL)=4, cPSS=2, PSS[NRTI]=1, NRTI[naïve]=0): −2.94; VL drop at the upper reference FC (minimal activity of the drug) (HIV [1]; upper reference fold change=3, Log(BaselineVL)=4, cPSS=2, PSS[NRTI]=1, NRTI[naïve]=0): −2.03; fold change at predicted viral load drop of −0.2 logs (HIV [3]; [8]): 4.0; fold change at predicted viral load drop of −0.6 logs (HIV [3]; [8]): 2.6; predicted viral load drop for any fold change (HIV [3]; Definition 1, log baseline viral load of 5, two active drugs in addition): more than 0.6 log copies/mL
Cc1ccnc2c1NC(=O)c1cccnc1N2C1CC1 [NVP, neviripine]	1.5	3.2	0.290	0.282	0.054	0.054	–	–	–	–	–
CC(C)CN(C[C@@H](O)[C@H](Cc1ccccc1)NC(=O)O[C@H]1CCOC1)S(=O)(=O)c1ccc(N)cc1 [APV, amprenavir]	–	–	–	–	–	–	–	–	–	3.4	–
amprenavir/r [APV/r]	0.9	6.5	0.053	0.005	–	–	6.8	1.5	6.8	6.8	clinical cutoff for 20% reduced response (lower clinical cutoff) (HIV [3]; definition 2, after 8 weeks): 1.5
CC(C)(C)NC(=O)[C@@H]1CN(Cc2cccnc2)CCN1C[C@@H](O)C[C@@H](Cc1ccccc1)C(=O)N[C@H]1c2ccccc2C[C@H]1O [IDV, indinavir]	–	–	–	–	–	–	–	–	–	3.4	–
Lopinavir/r [LPV/r]	10.3	61.6	0.240	0.074	0.277	0.002	56	6.9	56	–	Linear Regression Higher CO (HIV [3]): 69; Linear Regression Lower CO (HIV [3]): 8; Logistic Regression Higher CO (HIV [4]; [5]): 64; Logistic Regression Lower CO (HIV [4]; [5]): 11; Logistic Regression Higher CO (HIV [4]; [9]): 58; Logistic Regression Lower CO (HIV [4]; [9]): 9; lower cutoff, logistic regression (HIV [4]): 10; upper cutoff, logistic regression (HIV [4]): 60
